This note sets out measurements from publication PMC9367672, “In vitro differences in toddalolactone metabolism in various species and its effect on cytochrome P450 expression” (Pharmaceutical Biology, 2022).

Like-named read-outs stand apart in the source and are kept apart here.

What all share (assay type): in vitro ADME
The nature of data set [1]: Metabolic stability assessment in monkey liver microsomes. As to conditions: pH 7.4, MLMs, toddalolactone 20 μM, 0-90 min. The method, then: The CYP reaction system (200 μL) consisted of 0.1 M potassium phosphate buffer (pH 7.4), an NADPH-generating system (1 mM NADPH, 10 mM G-6-P, 1 unit/mL G-6-PD, 4 mM MgCl2), and liver microsomes or recombinant human microsomes (supersomes). Each of the in vitro enzymatic assays using liver microsomes was linear with respect to incubation time and amount of protein. After a pre-incubation at 37 °C for 3 min, the reactions were initiated by adding NADP^+. After incubating for 60 min, the reactions were quenched by adding 200 μL of ice-cold acetonitrile. Samples were centrifuged at 18,000 g for 15 min at 4 °C and 10 μL of supernatant was analyzed using an HPLC system. […]
In the UGT reaction system, liver microsomes were incubated in 200 μL of the reaction system containing 4 mM UDPGA, 5 mM MgCl2, 20 µg/mL alamethicin, and 50 mM Tris-HCl buffer (pH 7.4). […] After centrifugation at 18,000 g for 15 min, 10 μL of the supernatant was analyzed by HPLC.
Toddalolactone (20 μM) was incubated with different liver microsomes, including HLMs, DLMs, PLMs, MLMs, RAMs, RLMs or MIMs in oxidative metabolism and glucuronidation reaction systems. […] The mixtures were centrifuged at 18,000 g for 15 min at 4 °C and then 10 μL of the supernatant was analyzed by HPLC. […]
The peak areas of toddalolactone and its metabolites were detected using a HPLC system (Shimadzu, Kyoto, Japan). […]
In general terms: Microsomes from liver hold many membrane-bound enzymes, among them those of drug oxidation.

The test system of data set [2] is RLMs. The experiment in a line: Enzyme kinetics of toddalolactone metabolism in rat liver microsomes (oxidative metabolism and glucuronidation). Particulars: RLMs; for V max: toddalolactone 1–200 μM. The method, then:
(§1) The CYP reaction system (200 μL) consisted of 0.1 M potassium phosphate buffer (pH 7.4), an NADPH-generating system (1 mM NADPH, 10 mM G-6-P, 1 unit/mL G-6-PD, 4 mM MgCl2), and liver microsomes or recombinant human microsomes (supersomes). Each of the in vitro enzymatic assays using liver microsomes was linear with respect to incubation time and amount of protein. After a pre-incubation at 37 °C for 3 min, the reactions were initiated by adding NADP^+. After incubating for 60 min, the reactions were quenched by adding 200 μL of ice-cold acetonitrile. Samples were centrifuged at 18,000 g for 15 min at 4 °C and 10 μL of supernatant was analyzed using an HPLC system. NADPH or CYP enzyme sources were not used in the control group to ensure that the metabolic reactions were CYP- and NADPH-dependent. All incubation assays were completed in triplicate. The data are presented as mean ± standard deviation (SD).
(§2) In the UGT reaction system, liver microsomes were incubated in 200 μL of the reaction system containing 4 mM UDPGA, 5 mM MgCl2, 20 µg/mL alamethicin, and 50 mM Tris-HCl buffer (pH 7.4). After pre-incubation at 37 °C for 3 min, UDPGA was added to the mixture to initiate the reactions. The mixtures were incubated at 37 °C for 60 min, followed by the addition of 200 μL of cold methanol to terminate the reactions. After centrifugation at 18,000 g for 15 min, 10 μL of the supernatant was analyzed by HPLC.
(§3) The enzyme kinetics of toddalolactone in oxidative metabolism and glucuronidation were determined by incubating liver microsomes (0.2 mg/mL) or CYPs (15 nM) with different concentrations of toddalolactone (1–200 μM). The kinetic parameters including Km and Vmax were obtained by fitting the experimental data to the Michaelis–Menten equation (Equation (1)), biphasic kinetics equation (Equation (2)), or substrate inhibition equation (Equation (3)) (He et al. [2018]), and the results were graphically represented on Eadie–Hofstee plots. The in vitro intrinsic clearance (CLint) was calculated based on the Vmax/Km ratio. Metabolites were quantified using the standard curve for toddalolactone because of the absence of metabolite standards. All incubations were repeated in three independent experiments. Kinetic constants were expressed with mean ± SD: (1) V=Vmax×[S]/Km+[S] (2) V=Vmax1×[S]/Ks1+[S]+Vmax2×[S]/Ks2+[S] (3) V=Vmax×[S]/Ks+[S]+[S]^2/Ksi where v is the rate of reaction, Vmax is the estimated maximum velocity, [S] is the substrate concentration, and Km is the affinity constant of the substrate; Vmax1 and Vmax2 represent the estimated maximum velocity of the two metabolic phases; Ks1 and Ks2 represent the affinity constants for two metabolic phases; Ks and Ksi are the substrate affinity and inhibition constants, respectively.
(§4) The enzyme kinetics in oxidative metabolism and glucuronidation of toddalolactone were studied, and preliminary experiments were performed to ensure that metabolites were formed in the linear range of both reaction time and microsomal protein concentration. The metabolite with the largest peak area was used to calculate the kinetic parameter values (Km, Vmax and CLint). Based on the results of toddalolactone metabolism in different species, the kinetic parameter values in RLMs, DLMs, MLMs, HLMs, RAMs, MIMs, PLMs, CYP1A1 and CYP3A5 were calculated using P4, P4, P4, P4, P2, P2, P4, P4 and P4 data in oxidative metabolism, respectively. In the glucuronidation reaction, the kinetic parameter values in RLMs, MLMs, HLMs, RAMs and PLMs were calculated using P5, P6, P6, P6 and P5 data, respectively.

Assay in data set [3]: as above
As to conditions: rat, liver microsomes, pH 7.4, RLMs, Vmax/Km. The method, then:
as §1, §2, §3, §4

In data set [4] the target is CYP3A5 (Homo sapiens, UniProt P20815). The experiment in a line: Reaction phenotyping with recombinant human CYP3A5. Also noted: purchased Corning Life Sciences (Corning, MA); host or cells: Saccharomyces cerevisiae. As to conditions: CYP3A5 15 nM, 37 °C, 60 min; P4 main metabolite. The method, then: as §1
Thirteen cDNA-expressed human CYP isoforms (CYP1A1, CYP1A2, CYP2A6, CYP2B6, CYP2C8, CYP3A4, CYP2C19, CYP3A5, CYP1B1, CYP2C9, CYP2D6, CYP2E1 and CYP4F2) were used to identify the isoform(s) involved in the biotransformation of toddalolactone. Toddalolactone (10 μM) was incubated with each recombinant CYP (15 nM) for 60 min at 37 °C and metabolites were identified by HPLC.

A short description of data set [5]: Enzyme kinetics of toddalolactone metabolism in mini pig liver microsomes (oxidative metabolism and glucuronidation). As to conditions: pig, Vmax/Km. The method, then:
as §1, §2, §3, §4

[6] abbreviates: P450-catalyzed oxidation, P4 formation.
[7] abbreviates: glucuronide metabolism, P5 formation.

Chain of CYP3A5 (P20815 whole entry, canonical isoform): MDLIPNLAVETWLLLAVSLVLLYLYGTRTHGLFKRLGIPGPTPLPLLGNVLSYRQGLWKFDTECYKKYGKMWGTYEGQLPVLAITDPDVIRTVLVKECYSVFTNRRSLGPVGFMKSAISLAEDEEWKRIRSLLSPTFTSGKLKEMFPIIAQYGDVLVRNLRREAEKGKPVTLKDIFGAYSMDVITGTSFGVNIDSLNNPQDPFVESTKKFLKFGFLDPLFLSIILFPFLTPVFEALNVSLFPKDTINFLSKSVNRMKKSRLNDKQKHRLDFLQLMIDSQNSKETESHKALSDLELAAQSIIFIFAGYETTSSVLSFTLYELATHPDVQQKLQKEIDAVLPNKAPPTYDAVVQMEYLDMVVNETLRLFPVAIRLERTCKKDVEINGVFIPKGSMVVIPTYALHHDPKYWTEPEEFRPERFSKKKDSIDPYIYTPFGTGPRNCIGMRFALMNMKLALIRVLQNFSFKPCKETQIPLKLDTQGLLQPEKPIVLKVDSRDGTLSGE

For the compound `COc1cc2oc(=O)ccc2c(OC)c1C[C@@H](O)C(C)(C)O` [toddalolactone], the half-life at 20 μM in data set [1] (CYP incubation system, read-out: half-life value (T1/2)) came to 4.08 h; in data set [1] (UGT incubation system, read-out: T1/2 value) it was 1.1 h. Besides, the K m in data set [2] (setting [6]) was 121.13 ± 31.89 µM; in data set [2] (setting [7]), 79.11 ± 22.56 µM. Moreover, the figures for the V max in data set [2] (setting [6]) and in data set [2] (setting [7]) were 158.26 ± 20.52 pmol/min/mg protein and 55.89 ± 6.61 pmol/min/mg protein, respectively. In addition, the microsomal CLint in data set [3] (setting [6]) was found to be 1.31 µL/min/mg; in data set [3] (setting [7]), 0.69 µL/min/mg; in data set [5] (liver microsomes, pH 7.4, PLMs, P450-catalyzed oxidation, P4 formation) it was 0.69 µL/min/mg; in data set [5] (mini pig liver microsomes (PLMs), UGT reaction system, pH 7.4, glucuronide metabolism, P5 formation), 0.36 µL/min/mg. The “catalysis of toddalolactone metabolism by rhCYP isoform” value in data set [4] is given as “predominantly catalyzed”.
